According to PMC5218480 (PLoS ONE, 2017):

Tested on: MV-4-11 cells
Experiment: Gene expression microarray analysis (Affymetrix PrimeView) and GSEA
Type: cell-based, human
Parameters: RFU PODN (11730768_x_at) / Fold change /veh PODN (11730768_x_at) / RFU LINC00158 (11744669_a_at) / Fold change /veh LINC00158 (11744669_a_at) / RFU DUSP10 (11751237_a_at) / Fold change /veh DUSP10 (11751237_a_at) / RFU ID3 (11757404_x_at) / Fold change /veh ID3 (11757404_x_at) / RFU PLEKHG5 (11737974_s_at) / Fold change /veh PLEKHG5 (11737974_s_at) / RFU LRRC4B (11730491_at) / Fold change /veh LRRC4B (11730491_at) / RFU GIMAP4 (11747438_a_at) / Fold change /veh GIMAP4 (11747438_a_at) / RFU KRT8 (11758183_x_at) / Fold change /veh KRT8 (11758183_x_at) / RFU CNN1 (11734310_a_at) / Fold change /veh CNN1 (11734310_a_at) / RFU VPS37D (11726825_at) / Fold change /veh VPS37D (11726825_at) / RFU C10orf10 (11716522_x_at) / Fold change /veh C10orf10 (11716522_x_at) / RFU KIR2DL2 /// KIR2DL4 /// KIR2DL5A /// KIR2DL5B /// KIR2DS1 /// KIR2DS2 /// KIR2DS3 /// KIR2DS4 /// KIR3DL3 /// KIR3DL3 /// KIR3DS1 (11738374_at) / Fold change /veh KIR2DL2 /// KIR2DL4 /// KIR2DL5A /// KIR2DL5B /// KIR2DS1 /// KIR2DS2 /// KIR2DS3 /// KIR2DS4 /// KIR3DL3 /// KIR3DL3 /// KIR3DS1 (11738374_at) / RFU C1QL1 (11718748_at) / Fold change /veh C1QL1 (11718748_at) / RFU TMPRSS4 (11747572_a_at) / Fold change /veh TMPRSS4 (11747572_a_at) / RFU HAMP (11756126_x_at) / Fold change /veh HAMP (11756126_x_at) / RFU RNFT2 (11725882_a_at) / Fold change /veh RNFT2 (11725882_a_at) / RFU NR4A2 (11747474_a_at) / Fold change /veh NR4A2 (11747474_a_at) / RFU ABCC12 (11746883_a_at) / Fold change /veh ABCC12 (11746883_a_at) / RFU TMEM136 (11760407_x_at) / Fold change /veh TMEM136 (11760407_x_at) / RFU CLDN22 /// WWC2 (11732394_at) / Fold change /veh CLDN22 /// WWC2 (11732394_at) / RFU HLA-DPB1 (11760878_x_at) / Fold change /veh HLA-DPB1 (11760878_x_at) / RFU SPINT1 (11716480_a_at) / Fold change /veh SPINT1 (11716480_a_at) / RFU GAP43 (11754022_s_at) / Fold change /veh GAP43 (11754022_s_at) / RFU A4GNT (11735810_at) / Fold change /veh A4GNT (11735810_at) / RFU PRB3 (11715151_x_at) / Fold change /veh PRB3 (11715151_x_at) / RFU TUBB4B (11761932_at) / Fold change /veh TUBB4B (11761932_at) / RFU CAPN14 (11732068_a_at) / Fold change /veh CAPN14 (11732068_a_at) / RFU TMCC2 (11721928_a_at) / Fold change /veh TMCC2 (11721928_a_at) / RFU IRGQ (11745062_a_at) / Fold change /veh IRGQ (11745062_a_at) / RFU FAM174B (11720279_a_at) / Fold change /veh FAM174B (11720279_a_at) / RFU TMPRSS4 (11748680_a_at) / Fold change /veh TMPRSS4 (11748680_a_at) / RFU FAM212B (11763350_a_at) / Fold change /veh FAM212B (11763350_a_at) / RFU PLEKHG5 (11743358_a_at) / Fold change /veh PLEKHG5 (11743358_a_at) / RFU ZSCAN30 (11745921_a_at) / Fold change /veh ZSCAN30 (11745921_a_at) / RFU CMKLR1 (11741424_a_at) / Fold change /veh CMKLR1 (11741424_a_at) / RFU LOC101060620 /// MAPK8IP1 (11723275_at) / Fold change /veh LOC101060620 /// MAPK8IP1 (11723275_at) / RFU SPTSSB (11747773_x_at) / Fold change /veh SPTSSB (11747773_x_at) / RFU PRSS12 (11739890_at) / Fold change /veh PRSS12 (11739890_at) / RFU BIN1 (11741810_x_at) / Fold change /veh BIN1 (11741810_x_at) / RFU WNT11 (11732464_a_at) / Fold change /veh WNT11 (11732464_a_at) / RFU C10orf10 (11716521_a_at) / Fold change /veh C10orf10 (11716521_a_at) / RFU C5orf56 (11738089_at) / Fold change /veh C5orf56 (11738089_at) / RFU CYB561 (11721691_x_at) / Fold change /veh CYB561 (11721691_x_at) / RFU ANKRD19P (11752326_a_at) / Fold change /veh ANKRD19P (11752326_a_at) / RFU OR2T12 /// OR2T33 /// OR2T8 (11738714_s_at) / Fold change /veh OR2T12 /// OR2T33 /// OR2T8 (11738714_s_at) / RFU VCAN (11748164_a_at) / Fold change /veh VCAN (11748164_a_at) / RFU JSRP1 (11732532_at) / Fold change /veh JSRP1 (11732532_at) / RFU KRTAP10-11 (11738290_x_at) / Fold change /veh KRTAP10-11 (11738290_x_at) / RFU MYO3A (11730013_a_at) / Fold change /veh MYO3A (11730013_a_at) / RFU EBF3 (11725865_a_at) / Fold change /veh EBF3 (11725865_a_at) / RFU CAMK2N1 (11719241_x_at) / Fold change /veh CAMK2N1 (11719241_x_at) / RFU C5orf56 (11738088_a_at) / Fold change /veh C5orf56 (11738088_a_at) / RFU OLFML3 (11715873_a_at) / Fold change /veh OLFML3 (11715873_a_at) / RFU LOC100653217 /// NTM (11731650_a_at) / Fold change /veh LOC100653217 /// NTM (11731650_a_at) / RFU MAPK11 (11762145_a_at) / Fold change /veh MAPK11 (11762145_a_at) / RFU FIZ1 (11724087_x_at) / Fold change /veh FIZ1 (11724087_x_at) / RFU OASL (11726364_x_at) / Fold change /veh OASL (11726364_x_at) / RFU SOX15 (11748057_x_at) / Fold change /veh SOX15 (11748057_x_at) / RFU CD79A (11719716_a_at) / Fold change /veh CD79A (11719716_a_at) / RFU HIST1H1D (11736915_at) / Fold change /veh HIST1H1D (11736915_at) / RFU CASKIN2 (11723855_a_at) / Fold change /veh CASKIN2 (11723855_a_at) / RFU LOC730098 (11760151_x_at) / Fold change /veh LOC730098 (11760151_x_at) / RFU OR4N2 (11742367_at) / Fold change /veh OR4N2 (11742367_at) / RFU PRRT2 (11749266_a_at) / Fold change /veh PRRT2 (11749266_a_at) / RFU SNX32 (11753110_a_at) / Fold change /veh SNX32 (11753110_a_at) / RFU CDHR5 (11726645_a_at) / Fold change /veh CDHR5 (11726645_a_at) / RFU RCAN1 (11760418_a_at) / Fold change /veh RCAN1 (11760418_a_at) / RFU FAM167A (11723789_a_at) / Fold change /veh FAM167A (11723789_a_at) / RFU FAM26E (11764081_at) / Fold change /veh FAM26E (11764081_at) / RFU ISYNA1 (11749810_s_at) / Fold change /veh ISYNA1 (11749810_s_at) / RFU ACY1 (11761880_at) / Fold change /veh ACY1 (11761880_at) / RFU 11764098_at / Fold change /veh 11764098_at / RFU SAMD14 (11745864_x_at) / Fold change /veh SAMD14 (11745864_x_at) / RFU NPB (11741838_a_at) / Fold change /veh NPB (11741838_a_at) / RFU TMPRSS6 (11731388_a_at) / Fold change /veh TMPRSS6 (11731388_a_at) / RFU KRTAP10-2 (11738614_at) / Fold change /veh KRTAP10-2 (11738614_at) / RFU ARHGAP8 /// PRR5-ARHGAP8 (11727945_x_at) / Fold change /veh ARHGAP8 /// PRR5-ARHGAP8 (11727945_x_at) / RFU KRTAP5-7 /// NADSYN1 (11734609_at) / Fold change /veh KRTAP5-7 /// NADSYN1 (11734609_at) / RFU RASL12 (11751679_a_at) / Fold change /veh RASL12 (11751679_a_at) / RFU CDKN2B (11736163_a_at) / Fold change /veh CDKN2B (11736163_a_at) / RFU PRF1 (11729649_at) / Fold change /veh PRF1 (11729649_at) / RFU, ZNF638 /// ZNF638-IT1 / Fold change vs veh, ZNF638 /// ZNF638-IT1 / RFU, PANK3 / Fold change vs veh, PANK3 / RFU, SH3YL1 / Fold change vs veh, SH3YL1 / RFU, ZEB2 / Fold change vs veh, ZEB2 / RFU, NRIP1 / Fold change vs veh, NRIP1 / RFU, PTTG1IP / Fold change vs veh, PTTG1IP / RFU, CAPN2 / Fold change vs veh, CAPN2 / RFU, MED14 / Fold change vs veh, MED14 / RFU, SNORA58 / Fold change vs veh, SNORA58 / RFU, C1orf63 / Fold change vs veh, C1orf63 / RFU, LRRFIP1 / Fold change vs veh, LRRFIP1 / RFU, NDUFAF7 / Fold change vs veh, NDUFAF7 / RFU, SLC12A2 / Fold change vs veh, SLC12A2 / RFU, IBTK / Fold change vs veh, IBTK / RFU, ESF1 / Fold change vs veh, ESF1 / Fold change vs veh, TMEM50B / RFU, TAOK1 / Fold change vs veh, TAOK1 / RFU, ACBD3 / Fold change vs veh, ACBD3 / RFU, TMA16 / Fold change vs veh, TMA16 / RFU, RWDD3 / Fold change vs veh, RWDD3 / RFU, BCAT1 / Fold change vs veh, BCAT1 / RFU, EDEM3 / Fold change vs veh, EDEM3 / RFU, TMEM33 / Fold change vs veh, TMEM33 / RFU, WDR75 / Fold change vs veh, WDR75 / RFU, AHCTF1 / Fold change vs veh, AHCTF1 / RFU, TFRC / Fold change vs veh, TFRC / RFU, ZDHHC17 / Fold change vs veh, ZDHHC17 / RFU, NOM1 / Fold change vs veh, NOM1 / RFU, ARL8B / Fold change vs veh, ARL8B / RFU, ZBTB11 / Fold change vs veh, ZBTB11 / RFU, TAMM41 / Fold change vs veh, TAMM41 / RFU, KIAA1704 /// LOC100996395 / Fold change vs veh, KIAA1704 /// LOC100996395 / RFU, ING1 / Fold change vs veh, ING1 / RFU, TRMT61B / Fold change vs veh, TRMT61B / RFU, FUBP3 / Fold change vs veh, FUBP3 / RFU, TP53 / Fold change vs veh, TP53 / RFU, TNKS2 / Fold change vs veh, TNKS2 / RFU, ZFP14 / Fold change vs veh, ZFP14 / RFU, ACTR2 / Fold change vs veh, ACTR2 / RFU, PPP3R1 / Fold change vs veh, PPP3R1 / RFU, PIK3R1 / Fold change vs veh, PIK3R1 / RFU, HNRNPA1 / Fold change vs veh, HNRNPA1 / RFU, RNF170 / Fold change vs veh, RNF170 / RFU, ZNF28 / Fold change vs veh, ZNF28 / RFU, RNGTT / Fold change vs veh, RNGTT / RFU, OGT / Fold change vs veh, OGT / RFU, BRD1 / Fold change vs veh, BRD1 / RFU, MARS / Fold change vs veh, MARS / RFU, ZNF655 / Fold change vs veh, ZNF655 / RFU, FAHD1 / Fold change vs veh, FAHD1 / RFU, BDP1 / Fold change vs veh, BDP1 / RFU, LRRCC1 / Fold change vs veh, LRRCC1 / RFU, ARID1A / Fold change vs veh, ARID1A / RFU, ZNF146 / Fold change vs veh, ZNF146 / RFU, ZNF330 / Fold change vs veh, ZNF330 / RFU, GPN3 / Fold change vs veh, GPN3 / RFU, C9orf123 / Fold change vs veh, C9orf123 / RFU, N4BP2L2 / Fold change vs veh, N4BP2L2 / RFU, ARFIP1 / Fold change vs veh, ARFIP1 / RFU, FAM179B / Fold change vs veh, FAM179B / RFU, BCL10 / Fold change vs veh, BCL10 / RFU, UHRF1BP1L / Fold change vs veh, UHRF1BP1L / RFU, BET1 / Fold change vs veh, BET1 / RFU, CNOT2 / Fold change vs veh, CNOT2 / RFU, ZNF268 / Fold change vs veh, ZNF268 / Fold change vs veh, ZNF507 / RFU, DGCR2 / Fold change vs veh, DGCR2 / RFU, WDSUB1 / Fold change vs veh, WDSUB1 / Fold change vs veh, HSP90B1 /// MIR3652 / RFU, ADSS / Fold change vs veh, ADSS / RFU, GK / Fold change vs veh, GK / RFU, ZNF148 / Fold change vs veh, ZNF148 / RFU, TAF9 / Fold change vs veh, TAF9 / RFU, SLC1A5 / Fold change vs veh, SLC1A5 / RFU, SLMO2 / Fold change vs veh, SLMO2 / RFU, ABCC4 / Fold change vs veh, ABCC4 / RFU, LOC101060439 /// RAP1B / Fold change vs veh, LOC101060439 /// RAP1B / RFU, RFX7 / Fold change vs veh, RFX7 / RFU, GTPBP10 / Fold change vs veh, GTPBP10 / RFU, CNEP1R1 / Fold change vs veh, CNEP1R1 / RFU, BIVM-ERCC5 /// ERCC5 / Fold change vs veh, BIVM-ERCC5 /// ERCC5 / RFU, ILF3 / Fold change vs veh, ILF3 / RFU 11762660_at / Fold change /veh 11762660_at / RFU VCAN (11757783_s_at) / Fold change /veh VCAN (11757783_s_at) / RFU DDX43 (11728927_at) / Fold change /veh DDX43 (11728927_at) / RFU KRT8 (11758188_x_at) / Fold change /veh KRT8 (11758188_x_at) / RFU NKD1 (11759106_at) / Fold change /veh NKD1 (11759106_at) / RFU SRD5A1 (11742802_a_at) / Fold change /veh SRD5A1 (11742802_a_at) / RFU TPSAB1 /// TPSB2 (11721975_s_at) / Fold change /veh TPSAB1 /// TPSB2 (11721975_s_at) / RFU GSTM3 (11746129_a_at) / Fold change /veh GSTM3 (11746129_a_at) / RFU IL23R (11737362_x_at) / Fold change /veh IL23R (11737362_x_at) / RFU TMEM51 (11727254_a_at) / Fold change /veh TMEM51 (11727254_a_at) / RFU PIWIL2 (11732686_x_at) / Fold change /veh PIWIL2 (11732686_x_at) / RFU ORM1 (11744905_x_at) / Fold change /veh ORM1 (11744905_x_at) / RFU CCDC152 (11743942_at) / Fold change /veh CCDC152 (11743942_at) / RFU ECM1 (11717891_a_at) / Fold change /veh ECM1 (11717891_a_at) / RFU IL23R (11748794_a_at) / Fold change /veh IL23R (11748794_a_at) / RFU TNFAIP8L3 (11732012_x_at) / Fold change /veh TNFAIP8L3 (11732012_x_at) / RFU MBOAT4 (11741988_at) / Fold change /veh MBOAT4 (11741988_at) / RFU 11764193_at / Fold change /veh 11764193_at / RFU TMEM53 (11763286_at) / Fold change /veh TMEM53 (11763286_at) / RFU MAGEB2 (11727129_at) / Fold change /veh MAGEB2 (11727129_at) / RFU TMEM200A (11744735_a_at) / Fold change /veh TMEM200A (11744735_a_at) / RFU CCDC152 (11751479_a_at) / Fold change /veh CCDC152 (11751479_a_at) / RFU FAM211A (11726209_a_at) / Fold change /veh FAM211A (11726209_a_at) / RFU RGS16 (11746705_a_at) / Fold change /veh RGS16 (11746705_a_at) / RFU VCAN (11755009_s_at) / Fold change /veh VCAN (11755009_s_at) / RFU RHOB (11743442_s_at) / Fold change /veh RHOB (11743442_s_at) / RFU RGS16 (11720943_a_at) / Fold change /veh RGS16 (11720943_a_at) / RFU RGS16 (11720944_at) / Fold change /veh RGS16 (11720944_at) / RFU, VPS4B / Fold change vs veh, VPS4B / RFU, CREB1 / Fold change vs veh, CREB1 / RFU, DNAJC13 / Fold change vs veh, DNAJC13 / RFU, GNAQ / Fold change vs veh, GNAQ / RFU, CDK5R1 / Fold change vs veh, CDK5R1 / RFU, ZRANB3 / Fold change vs veh, ZRANB3 / RFU, CUL4A / Fold change vs veh, CUL4A / RFU, CCNY / Fold change vs veh, CCNY / RFU, UFL1 / Fold change vs veh, UFL1 / RFU, COG3 / Fold change vs veh, COG3 / RFU, DIAPH2 / Fold change vs veh, DIAPH2 / RFU, SKA2 / Fold change vs veh, SKA2 / RFU, AFF3 / Fold change vs veh, AFF3 / RFU, LMF1 / Fold change vs veh, LMF1 / RFU, IPO11 / Fold change vs veh, IPO11 / RFU, DFFB / Fold change vs veh, DFFB / RFU, FOXP1 / Fold change vs veh, FOXP1 / RFU, CARD8 / Fold change vs veh, CARD8 / RFU, STRN3 / Fold change vs veh, STRN3 / RFU, ADK / Fold change vs veh, ADK / RFU, RASSF2 / Fold change vs veh, RASSF2 / RFU, WIPF1 / Fold change vs veh, WIPF1 / RFU, LARP1B / Fold change vs veh, LARP1B / RFU, RASA1 / Fold change vs veh, RASA1 / RFU, RB1 / Fold change vs veh, RB1 / RFU, PPFIA1 / Fold change vs veh, PPFIA1 / RFU, MAT2A / Fold change vs veh, MAT2A / RFU, CCT5 / Fold change vs veh, CCT5 / RFU, WDR92 / Fold change vs veh, WDR92 / RFU, CUX1 / Fold change vs veh, CUX1 / RFU, TTC7A / Fold change vs veh, TTC7A / RFU, TMEM135 / Fold change vs veh, TMEM135 / RFU, DEPTOR / Fold change vs veh, DEPTOR / RFU, CPM / Fold change vs veh, CPM / RFU, DNAJB6 / Fold change vs veh, DNAJB6 / RFU, CACNA2D3 / Fold change vs veh, CACNA2D3 / RFU, DTX4 / Fold change vs veh, DTX4 / RFU, TFCP2 / Fold change vs veh, TFCP2 / RFU, GMCL1 /// GMCL1P1 / Fold change vs veh, GMCL1 /// GMCL1P1 / RFU, AEBP2 / Fold change vs veh, AEBP2 / RFU, SNHG1 /// SNORD22 /// SNORD25 /// SNORD26 /// SNORD27 /// SNORD28 /// SNORD29 /// SNORD31 / Fold change vs veh, SNHG1 /// SNORD22 /// SNORD25 /// SNORD26 /// SNORD27 /// SNORD28 /// SNORD29 /// SNORD31 / Fold change (Aza/veh), C12orf56 (ProbeSet 11735607_a_at) / Fold change (ACY-1035/veh), C12orf56 (ProbeSet 11735607_a_at) / Fold change (Aza/veh), FGFR1OP (ProbeSet 11751329_s_at) / Fold change (ACY-1035/veh), FGFR1OP (ProbeSet 11751329_s_at) / Fold change (Aza/veh), VPS36 (ProbeSet 11739960_a_at) / Fold change (ACY-1035/veh), VPS36 (ProbeSet 11739960_a_at) / RFU SYPL1 (11715823_x_at) / Fold change /veh SYPL1 (11715823_x_at) / RFU IGFBP7 (11715501_s_at) / Fold change /veh IGFBP7 (11715501_s_at) / RFU REEP3 (11722064_at) / Fold change /veh REEP3 (11722064_at) / RFU IGLL1 (11728026_x_at) / Fold change /veh IGLL1 (11728026_x_at): dose or concentration left out as unconfirmed
Settings: MV-4-11 cells, 48 hours

**Q.** `Nc1ccc(-c2cccs2)cc1NC(=O)c1ccc2c(c1)cc(C1CC1)n2CCN1CCOCC1` [ACY-1035] was tested. Which “Fold change /veh CDKN2B (11736163_a_at)” value did it give?
**A.** The value was 1.20.
